Assays:
[1] = biological target: METTL3/METTL14 complex (Homo sapiens); assay: Competive inhibition of full length human METTL3/METTL14 expressed in Sf9 cells using single strand RNA 5'-AAGAACCGGACUAAGCU-3' and SAM as substrate incubated for 40 mins by HTRF assay
[2] = biological target: N6-adenosine-methyltransferase catalytic/non-catalytic subunit (Homo sapiens, UniProt Q9HCE5+Q86U44); assay: Inhibition of full-length His-tagged METTL3/full length FLAG-tagged METTL14 (unknown origin) expressed in baculovirus expression system using synthetic RNA 5'P-uacacucgaucuggacuaaagcugcuc-3' and SAM as substrate preincubated for 10 mins followed by substrate addition and measured after 60 mins by RF/MS analysis
[3] = biological target: METTL3/METTL14 (Homo sapiens); assay: Inhibition of full-length His-tagged METTL3/full length FLAG-tagged METTL14 (unknown origin) expressed in baculovirus expression system using synthetic RNA 5'P-uacacucgaucuggacuaaagcugcuc-3' and SAM as substrate preincubated for 10 mins followed by substrate addition and measured after 60 mins by RF/MS analysis
METTL3/METTL14 complex = assay: Inhibition of METTL3/METTL14 (unknown origin)

Sequence of N6-adenosine-methyltransferase catalytic/non-catalytic subunit (Q9HCE5 whole entry): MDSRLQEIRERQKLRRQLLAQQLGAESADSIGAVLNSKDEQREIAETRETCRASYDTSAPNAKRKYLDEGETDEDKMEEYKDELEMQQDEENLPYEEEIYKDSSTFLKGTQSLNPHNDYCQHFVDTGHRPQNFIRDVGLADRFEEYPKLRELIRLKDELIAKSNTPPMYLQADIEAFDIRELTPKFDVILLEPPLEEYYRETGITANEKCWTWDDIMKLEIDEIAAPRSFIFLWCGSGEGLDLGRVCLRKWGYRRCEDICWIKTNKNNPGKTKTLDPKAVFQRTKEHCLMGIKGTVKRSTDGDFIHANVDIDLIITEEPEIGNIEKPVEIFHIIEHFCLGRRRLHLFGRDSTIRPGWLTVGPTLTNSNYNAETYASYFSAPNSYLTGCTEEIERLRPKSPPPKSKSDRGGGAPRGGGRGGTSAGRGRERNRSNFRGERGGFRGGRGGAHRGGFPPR
Sequence of N6-adenosine-methyltransferase catalytic/non-catalytic subunit (Q86U44 whole entry): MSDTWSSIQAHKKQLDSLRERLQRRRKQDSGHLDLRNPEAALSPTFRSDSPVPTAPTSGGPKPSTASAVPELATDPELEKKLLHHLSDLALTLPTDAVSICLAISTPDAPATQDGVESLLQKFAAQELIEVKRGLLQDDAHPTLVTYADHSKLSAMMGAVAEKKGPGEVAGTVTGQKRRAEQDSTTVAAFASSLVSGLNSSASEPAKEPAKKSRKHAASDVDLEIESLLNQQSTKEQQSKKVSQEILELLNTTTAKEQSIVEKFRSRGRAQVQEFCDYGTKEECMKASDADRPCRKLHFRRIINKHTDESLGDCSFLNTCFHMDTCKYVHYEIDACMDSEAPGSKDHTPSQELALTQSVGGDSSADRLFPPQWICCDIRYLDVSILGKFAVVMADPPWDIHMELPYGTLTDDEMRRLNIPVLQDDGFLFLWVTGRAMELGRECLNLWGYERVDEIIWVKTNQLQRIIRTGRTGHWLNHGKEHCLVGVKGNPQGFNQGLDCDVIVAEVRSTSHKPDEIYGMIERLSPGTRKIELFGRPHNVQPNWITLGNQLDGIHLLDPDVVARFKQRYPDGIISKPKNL

SMILES	IC50 [2]	IC50 [3]	also measured
CN1CCC(NC(=O)[C@H]2O[C@@H](n3cnc4c(N)ncnc43)[C@H](O)[C@@H]2O)CC1	–	–	IC50 [1]: 65000 nM
CNC1CCC(O)(Cn2cnc3c(N)ncnc32)C(O)C1 (stereo not drawn)	–	–	IC50 [1]: 98000 nM
CC1(C)CCN(Cc2ccc3nc(Cn4cc(-c5cc(Br)cc6[nH]ncc56)nn4)cn3c2)CC1	7.9 nM	–	–
COc1cc(-c2cn(Cc3cn4cc(CNCC5(OC)CCC5)ccc4n3)nn2)c2cn[nH]c2c1	6.1 nM	–	–
COc1ccc2[nH]ncc2c1-c1cn(Cc2cn3cc(CNCC4CCC4)ccc3n2)nn1	6.1 nM	–	–
O=C(NCc1cn2cc(CNCC34CC(F)(C3)C4)ccc2n1)c1cc(=O)n2ccccc2n1	–	6.1 nM	–
CC1=NN(c2ccc(C)c(C)c2)C(=O)/C1=N\Nc1cccc(-c2cccc(C(=O)O)c2)c1	–	–	IC50 (METTL3/METTL14 complex): 15300 nM
Nc1ncnc2c1c(Br)cn2[C@@H]1C[C@H](c2ccc3cc(CN4CCC5(CCC5)C4)[nH]c3c2)[C@@H](O)[C@H]1O [(1R,2S,3R,5R)-3-{4-amino-5-bromo-7H-pyrrolo[2,3-d]pyrimidin-7-yl}-5-[2-({6-azaspiro[3.4]octan-]	6.1 nM	–	–
Nc1ncnc2c1c(Cl)cn2[C@@H]1C[C@H](c2ccc3cc(CNCC45CC(F)(C4)C5)[nH]c3c2)[C@@H](O)[C@H]1O [(1R,2S,3R,5R)-3-{4-amino-5-chloro-7H-pyrrolo[2,3-d]pyrimidin-7-yl}-5-(2-{[({3-fluorobicyclo[1.1.1]pentan-1-]	6.1 nM	–	–
Nc1ncnc2c1ccn2[C@@H]1C[C@H](c2ccc3cc(CN4CCC5(CCC5)C4)[nH]c3c2)[C@@H](O)[C@H]1O [(1R,2S,3R,5R)-3-{4-amino-7H-pyrrolo[2,3-d]pyrimidin-7-yl}-5-[2-({6-azaspiro[3.4]octan-]	6.2 nM	–	–
COc1cc(-c2cn(Cc3cn4cc(CNCC56CC(F)(C5)C6)ccc4n3)nn2)c2cncn2c1 [({3-fluorobicyclo[1.1.1]pentan-1-yl}methyl)({2-[(4-{6-methoxyimidazo[1,5-a]pyridin-8-yl}-1H-1,2,3-triazol-1-yl)methyl]imidazo [1,2-a]pyridin-6-yl}methyl)amine]	–	6.1 nM	–
COc1cc(-c2cn(Cc3cn4cc(CNCC56CC(C5)C6)ccc4n3)nn2)c2cncn2c1 [({bicyclo[1.1.1]pentan-1-yl}methyl)({2-[(4-{6-methoxyimidazo[1,5-a]pyridin-8-yl}-1H-1,2,3-triazol-1-yl)methyl]imidazo [1,2-a]pyridin-6-yl}methyl)amine]	–	6.1 nM	–
COc1cc(-c2cn(Cc3cn4cc(CNCC5CCC5)ccc4n3)nn2)c2cncn2c1 [US20230391770, Example 22]	–	6.1 nM	–
